According to patent publication US6979436B2, “Opioid metallopeptide compositions and methods” (Palatin Technologies, Inc., priority 1999, dated 2005):
Non-standard residues stand in square brackets, D forms with d. No end group written: not given here. hTyr = N[C@@H](CCc1ccc(O)cc1)C(=O)O; hPhe = N[C@@H](CCc1ccccc1)C(=O)O; Phg = N[C@H](C(=O)O)c1ccccc1; Ava = NCCCCC(=O)O; βAla = NCCC(=O)O

Experiments:
[1] = biological target: δ receptors, mouse vas deferens (MVD) (Mus musculus, UniProt P32300); assay: mouse vas deferens (MVD) in vitro functional assay; conditions: for MVD observed percent efficacy at 10 μM: value in brackets; for MVD functional activity class / EC50: mouse vas deferens; for EC50: read-out: In Vitro Functional Assay [ED50 in μM] MVD, rhenium-complexed peptides
[2] = tested on: μ receptors, guinea pig ileum (GPI); assay: guinea pig ileum (GPI) in vitro functional assay; conditions: for EC50: read-out: In Vitro Functional Assay [ED50 in μM] GPI, rhenium-complexed peptides; for EC50 / GPI functional activity class: guinea pig ileum; for GPI observed percent efficacy at 10 μM: value in brackets
[3] = biological target: κ opiate receptor (Cavia porcellus, UniProt P41144); assay: κ receptor binding assay, guinea-pig brain membrane, 3H-U69593 displacement; conditions: read-out: Receptor Binding Assay [Ki in μM] Kappa Receptor
Chain of κ opiate receptor (P41144 whole entry): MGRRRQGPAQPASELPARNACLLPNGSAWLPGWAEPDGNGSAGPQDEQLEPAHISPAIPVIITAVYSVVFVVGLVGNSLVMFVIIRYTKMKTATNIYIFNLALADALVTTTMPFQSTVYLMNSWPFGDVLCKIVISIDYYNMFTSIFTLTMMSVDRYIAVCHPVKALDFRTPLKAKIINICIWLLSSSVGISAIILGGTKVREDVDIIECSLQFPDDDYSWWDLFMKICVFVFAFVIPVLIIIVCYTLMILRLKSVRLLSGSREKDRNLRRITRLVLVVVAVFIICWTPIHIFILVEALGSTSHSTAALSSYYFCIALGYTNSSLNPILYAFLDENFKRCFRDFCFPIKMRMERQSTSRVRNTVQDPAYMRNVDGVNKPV

Chain of δ receptors, mouse vas deferens (MVD) (P32300 whole entry): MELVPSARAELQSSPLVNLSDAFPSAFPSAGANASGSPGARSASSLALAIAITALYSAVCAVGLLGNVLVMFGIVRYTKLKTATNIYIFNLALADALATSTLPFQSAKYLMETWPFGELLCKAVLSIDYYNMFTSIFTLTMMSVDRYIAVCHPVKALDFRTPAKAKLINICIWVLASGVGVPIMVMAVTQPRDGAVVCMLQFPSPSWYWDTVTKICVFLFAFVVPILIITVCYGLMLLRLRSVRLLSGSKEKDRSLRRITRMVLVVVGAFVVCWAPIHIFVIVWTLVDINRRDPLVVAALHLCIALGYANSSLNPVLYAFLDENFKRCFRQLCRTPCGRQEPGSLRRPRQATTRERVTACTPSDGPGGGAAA

## (p-OH)—C6H4(CH2)2—NH—CO—CH(NH2)—(CH2)2—CO-Gly-Phe-D-Cys-NH2
[1]
  MVD observed percent efficacy at 10 μM: 9%

## HTyr-β-Ala-Gly-Phe-Cys-NH2 ([hTyr][βAla]GFC-NH2; also: rhenium complex)
[1]
  MVD observed percent efficacy at 10 μM: 30%

## HTyr-β-Ala-Gly-Phe-D-Cys-NH2
[1]
  MVD observed percent efficacy at 10 μM: 11%

## Leu-Enkephalin [reference compound]
[2]
  EC50: 0.246 µM

## Lys-Tyr-Cys-OH
[2]
  GPI observed percent efficacy at 10 μM: 34%
[1]
  MVD observed percent efficacy at 10 μM: 41%

## NH2(CH2)4—CO-Phe-Asp-Cys-HTyr-NH2 ([Ava]FDC[hTyr]-NH2; also: rhenium complex)
[1]
  MVD observed percent efficacy at 10 μM: 20%

## Tyr-Ala-Cys-HPhe-NH2 (YAC[hPhe]-NH2; also: rhenium complex)
[2]
  GPI functional activity class: WPA
[1]
  MVD functional activity class: WPA

## Tyr-Ala-Cys-Phe-NH2 (YACF-NH2; also: rhenium complex)
[2]
  GPI functional activity class: WPA
[1]
  MVD functional activity class: WPA

## Tyr-Ala-Cys-Phg-NH2 (YAC[Phg]-NH2; also: rhenium complex)
[2]
  GPI functional activity class: WPA

## Tyr-Ala-Phe-Cys-OH (YAFC-OH; also: rhenium complex)
[2]
  GPI observed percent efficacy at 10 μM: 8%
[1]
  MVD observed percent efficacy at 10 μM: 48%

## Tyr-Cys-Gly-Cys-NH2 (YCGC-NH2; cysteine pairing not given here; also: rhenium complex)
[2]
  GPI observed percent efficacy at 10 μM: 14%
[1]
  MVD observed percent efficacy at 10 μM: 34%

## Tyr-Gly-Cys-HPhe-NH2 (YGC[hPhe]-NH2; also: rhenium complex)
[2]
  GPI functional activity class: WPA
[1]
  MVD functional activity class: WPA

## Tyr-Gly-Cys-Phg-NH2 (YGC[Phg]-NH2; also: rhenium complex)
[2]
  GPI functional activity class: WPA
[1]
  MVD functional activity class: WPA

## Tyr-Lys-Cys-OH
[2]
  GPI observed percent efficacy at 10 μM: 41%
[1]
  MVD observed percent efficacy at 10 μM: 48%

## Tyr-Val-Cys-Phe-NH2 (YVCF-NH2; also: rhenium complex)
[1]; ED30 instead of ED50
  MVD [ED30]: 1.42 ± 0.21 µM

## Tyr-[dK]-Cys-OH
[2]
  GPI observed percent efficacy at 10 μM: 57%
[1]
  MVD observed percent efficacy at 10 μM: 9%

## Tyr-β-Ala-Gly-Phe-Cys-NH2 (Y[βAla]GFC-NH2; also: rhenium complex)
[1]
  MVD observed percent efficacy at 10 μM: 22%

## YAGFC [Tyr-Ala-Gly-Phe-Cys-NH2]
[2]
  EC50: > 10 µM
[1]
  EC50: > 10 µM

## YCGFC [Tyr-Cys-Gly-Phe-Cys-NH2]
[2]
  EC50: 0.612 µM
[3]
  Ki: 2.1 µM

## YC[dF]G-NH2
[2]
  EC50: > 10 µM
[1]
  EC50: > 10 µM

## YGCF [Tyr-Gly-Cys-Phe-NH2]
[2]
  EC50: > 10 µM
[1]
  EC50: 1.35 µM

## YGGCF [Tyr-Gly-Gly-Cys-Phe-NH2]
[2]
  EC50: > 10 µM
[1]
  EC50: > 10 µM

## YG[dF]C-NH2
[2]
  EC50: > 10 µM
[1]
  EC50: > 10 µM

## Y[dA]CF-NH2
[2]; ED40 instead of ED50
  GPI [ED40]: 3.06 ± 0.29 µM
[1]
  MVD observed percent efficacy at 10 μM: 16%

## Y[dK]CF
[2]
  EC50: 3.03 ± 0.43 µM

## Y[βAla]FGC-OH
[2]
  GPI observed percent efficacy at 10 μM: 51%
[1]
  MVD observed percent efficacy at 10 μM: 17%

## Y[βAla]GF[dC]-NH2
[1]
  MVD observed percent efficacy at 10 μM: 30%

## [dK]-Tyr-Cys-OH
[2]
  GPI observed percent efficacy at 10 μM: 28%
[1]
  MVD observed percent efficacy at 10 μM: 18%
